These results are taken from US9284321B2, “Piperazino[1,2-a]indol-1-ones and [1,4]diazepino[1,2-a]indol-1-one” (Hoffmann-La Roche Inc., priority 2012, dated 2016).

For data set [1], the system named is human embryonic stem cell derived neural stem cells (NSCs). In words: Neural Stem Cell Proliferation Assay (neurogenesis assay, ATP levels by CellTiterGlo). It is filed as cell-based. Conditions: 96 h, compound concentration at which 150% activity of control (100%) is reached, NSC proliferation by ATP level after 4 days incubation, dose response 8 μM to 8 nM. The essentials:
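Read-out is CellTiterGlo ATP luminescence after 4-day culture (37 °C, 5% CO2) of dual-SMAD-derived human ESC NSCs, dosed 4 h post-seeding at 8 μM to 8 nM (11 points, 2-fold). EC150 marks the concentration reaching 150% of the media-only control (0.25% DMSO).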
Background: In ATP-based viability assays light output follows the ATP content of the culture.

SMILES strings stand for the structures.

Broadly, the melting point is the temperature of the solid-liquid transition. In the case of `Cc1c2n(c3c(-c4ccc(C(C)(C)C)cc4)cc(C#N)cc13)CCNC2=O` [Example 280, 6-(4-tert-Butylphenyl)-10-methyl-1-oxo-3,4-dihydro-2H-pyrazino[1,2-a]indole-8-carbonitrile], the melting point worked out at 292 °C. The EC (150% of control) in data set [1] came out at 0.14 µM.

Compound `Cc1c2n(c3c(-c4ccnc(Cl)c4)cc(C#N)cc13)CCNC2=O` [Example 281, 6-(2-Chloropyridin-4-yl)-10-methyl-1-oxo-3,4-dihydro-2H-pyrazino[1,2-a]indole-8-carbonitrile] came in with a melting point of 281 °C. The same compound displayed an EC (150% of control) in data set [1] of 0.22 µM.

In turn, `Cc1c2n(c3c(-c4cccnc4)cc(C#N)cc13)CCNC2=O` [Example 282, 10-Methyl-1-oxo-6-pyridin-3-yl-3,4-dihydro-2H-pyrazino[1,2-a]indole-8-carbonitrile] gave a melting point of 273 °C. The EC (150% of control) in data set [1] came out at 0.96 µM.

On to `Cc1c2n(c3c(-c4cncnc4)cc(C#N)cc13)CCNC2=O` [Example 283, 10-Methyl-1-oxo-6-pyrimidin-5-yl-3,4-dihydro-2H-pyrazino[1,2-a]indole-8-carbonitrile], for which the melting point amounted to 325 °C. In data set [1], the EC (150% of control) worked out at 1.61 µM.

Take `N#Cc1cc(-c2ccc(F)c(F)c2F)c2c(c1)cc1n2CCCNC1=O` [Example 284, 1-Oxo-7-(2,3,4-trifluorophenyl)-2,3,4,5-tetrahydro-[1,4]diazepino[1,2-a]indole-9-carbonitrile]: the melting point is 187 °C. Besides, the EC (150% of control) in data set [1] was determined as 0.16 µM.

`N#Cc1cc(-c2cccc(Cl)c2)c2c(c1)cc1n2CCCNC1=O` [Example 285, 7-(3-Chlorophenyl)-1-oxo-2,3,4,5-tetrahydro-[1,4]diazepino[1,2-a]indole-9-carbonitrile] yielded a melting point of 209 °C. Moreover, the EC (150% of control) in data set [1] is 3.12 µM.

`Cc1ccc(-c2cc(C#N)cc3cc4n(c23)CCCNC4=O)cc1` [Example 287, 7-(4-Methylphenyl)-1-oxo-2,3,4,5-tetrahydro-[1,4]diazepino[1,2-a]indole-9-carbonitrile] showed a melting point of 240.5 °C. This compound also showed an EC (150% of control) in data set [1] of 0.22 µM.

Regarding `Cc1ccc(-c2cc(C#N)cc3c(C)c4n(c23)CCCNC4=O)cc1` [Example 288, 11-Methyl-7-(4-methylphenyl)-1-oxo-2,3,4,5-tetrahydro-[1,4]diazepino[1,2-a]indole-9-carbonitrile], the melting point stood at 287 °C. Moreover, the EC (150% of control) in data set [1] is 0.04 µM.

Turning to `Cc1c2n(c3c(-c4cccc(F)c4)cc(C#N)cc13)CCCNC2=O` [Example 289, 7-(3-Fluorophenyl)-11-methyl-1-oxo-2,3,4,5-tetrahydro-[1,4]diazepino[1,2-a]indole-9-carbonitrile], the melting point was 261 °C. The EC (150% of control) in data set [1] is 0.035 µM.

As for `Cc1c2n(c3c(-c4cc(F)cc(F)c4)cc(C#N)cc13)CCCNC2=O` [Example 290, 7-(3,5-Difluorophenyl)-11-methyl-1-oxo-2,3,4,5-tetrahydro-[1,4]diazepino[1,2-a]indole-9-carbonitrile], the melting point is 265 °C. Besides, in data set [1], the EC (150% of control) stood at 0.29 µM.

For the compound `Cc1ccc(-c2cc(C#N)cc3c(C)c4n(c23)CCCNC4=O)cc1F` [Example 291, 7-(3-Fluoro-4-methylphenyl)-11-methyl-1-oxo-2,3,4,5-tetrahydro-[1,4]diazepino[1,2-a]indole-9-carbonitrile], the melting point is 265 °C. In data set [1], the EC (150% of control) came out at 0.16 µM.

For `Cc1cc(-c2cc(C#N)cc3c(C)c4n(c23)CCNC4=O)ccc1F` [Example 292, 6-(4-Fluoro-3-methylphenyl)-10-methyl-1-oxo-3,4-dihydro-2H-pyrazino[1,2-a]indole-8-carbonitrile], the melting point turned out to be 232 °C. The compound further showed an EC (150% of control) in data set [1] of 0.089 µM.

`Cc1c2n(c3c(-c4ccc(S(C)(=O)=O)cc4)cc(C#N)cc13)CCNC2=O` [Example 294, 10-Methyl-6-(4-methylsulfonylphenyl)-1-oxo-3,4-dihydro-2H-pyrazino[1,2-a]indole-8-carbonitrile] showed a melting point of 332 °C. The EC (150% of control) in data set [1] came to 0.27 µM.

The compound `Cc1c2n(c3c(-c4ccc(Cl)c(C(F)(F)F)c4)cc(C#N)cc13)CCNC2=O` [Example 295, 6-[4-Chloro-3-(trifluoromethyl)phenyl]-10-methyl-1-oxo-3,4-dihydro-2H-pyrazino[1,2-a]indole-8-carbonitrile] displayed a melting point of 278 °C. This compound also registered an EC (150% of control) in data set [1] of 0.3 µM.

Take `Cc1c2n(c3c(-c4ccc(Cl)c(Cl)c4)cc(C#N)cc13)CCCNC2=O` [Example 296, 7-(3,4-Dichlorophenyl)-11-methyl-1-oxo-2,3,4,5-tetrahydro-[1,4]diazepino[1,2-a]indole-9-carbonitrile]: the melting point worked out at 254 °C. In data set [1], this compound had an EC (150% of control) of 0.2 µM.

`Cc1c2n(c3c(-c4ccc(Cl)c(F)c4)cc(C#N)cc13)CCCNC2=O` [Example 297, 7-(4-Chloro-3-fluorophenyl)-11-methyl-1-oxo-2,3,4,5-tetrahydro-[1,4]diazepino[1,2-a]indole-9-carbonitrile] came in with a melting point of 247.5 °C. The same compound came in with an EC (150% of control) in data set [1] of 0.096 µM.

Turning to `Cc1c2n(c3c(-c4cccnc4)cc(C#N)cc13)CCCNC2=O` [Example 298, 11-Methyl-1-oxo-7-pyridin-3-yl-2,3,4,5-tetrahydro-[1,4]diazepino[1,2-a]indole-9-carbonitrile], the melting point was determined as 260 °C. The EC (150% of control) in data set [1] is 1 µM.
